Values belong to the compound of their own block, whether it stands above or below them.
Tests used:
[1] = Absorption and emission spectra of dyes in different solvents; type: physicochemical; parameters: key to Δλ1 / Δλ2: Stokes shift in nm; ε1 (molar extinction coefficient) / ε2 (molar extinction coefficient): scale not given here; conditions: for Δλ1: Stokes shift to absorption peak 1; for Δλ2: Stokes shift to absorption peak 2
From the text: In the present invention, compounds IIa to IIg were synthesized based on compound II, and their spectral properties were investigated. Compared with the traditional pentamethine cyanine dye, for the novel pentamethine cyanine dye with N-substituting at β-position (deviated position), it was observed that, evident blue shift of absorption and emission wavelengths occurred, absorption wavelength blue shifted even largely than that of emission wavelength, absorption spectrum and fluorescence spectrum were no longer mirror-symmetric and had two absorption peaks and a single emission peak, and larger Stokes shift (minimum 60 and 150 nm, and maximum 90 and 230 nm) appeared.

[2] = Measurement of fluorescence quantum yield (Rhodamine B in ethanol as reference); type: physicochemical

Δλ1 ([1]; solvent DCM): 87 | Δλ1 ([1]; solvent DMSO): 90 | Δλ1 ([1]; solvent Ethanol): 87 | Δλ1 ([1]; solvent Methanol): 90 | Δλ1 ([1]; solvent THF): 86 | Δλ1 ([1]; solvent Water): 93 | Δλ2 ([1]; solvent DCM): 162 | Δλ2 ([1]; solvent DMSO): 151 | Δλ2 ([1]; solvent Ethanol): 163 | Δλ2 ([1]; solvent Methanol): 166 | Δλ2 ([1]; solvent THF): 156 | Δλ2 ([1]; solvent Water): 171 | ε1 (molar extinction coefficient) ([1]; solvent DCM): 3.1 cm^−1M | ε2 (molar extinction coefficient) ([1]; solvent DCM): 2.1 cm^−1M | λabs1 ([1]; solvent DCM): 528 nm | λbs2 ([1]; solvent DCM): 453 nm | λem ([1]; solvent DCM): 615 nm | ε1 (molar extinction coefficient) ([1]; solvent DMSO): 3.3 cm^−1M | ε2 (molar extinction coefficient) ([1]; solvent DMSO): 2.2 cm^−1M | λabs1 ([1]; solvent DMSO): 521 nm | λbs2 ([1]; solvent DMSO): 460 nm | λem ([1]; solvent DMSO): 611 nm | ε1 (molar extinction coefficient) ([1]; solvent Ethanol): 3.4 cm^−1M | ε2 (molar extinction coefficient) ([1]; solvent Ethanol): 2.5 cm^−1M | λabs1 ([1]; solvent Ethanol): 528 nm | λbs2 ([1]; solvent Ethanol): 452 nm | λem ([1]; solvent Ethanol): 615 nm | ε1 (molar extinction coefficient) ([1]; solvent Methanol): 3.4 cm^−1M | ε2 (molar extinction coefficient) ([1]; solvent Methanol): 2.5 cm^−1M | λabs1 ([1]; solvent Methanol): 527 nm | λbs2 ([1]; solvent Methanol): 451 nm | λem ([1]; solvent Methanol): 617 nm | ε1 (molar extinction coefficient) ([1]; solvent THF): 4.0 cm^−1M | ε2 (molar extinction coefficient) ([1]; solvent THF): 2.0 cm^−1M | λabs1 ([1]; solvent THF): 523 nm | λbs2 ([1]; solvent THF): 453 nm | λem ([1]; solvent THF): 609 nm | ε1 (molar extinction coefficient) ([1]; solvent Water): 2.5 cm^−1M | ε2 (molar extinction coefficient) ([1]; solvent Water): 1.9 cm^−1M | λabs1 ([1]; solvent Water): 525 nm | λbs2 ([1]; solvent Water): 447 nm | λem ([1]; solvent Water): 618 nm | Φ1 (fluorescence quantum yield) ([2]; solvent DCM): 0.113 | Φ2 (fluorescence quantum yield) ([2]; solvent DCM): 0.105 | Φ1 (fluorescence quantum yield) ([2]; solvent DMSO): 0.004 | Φ2 (fluorescence quantum yield) ([2]; solvent DMSO): 0.005 | Φ1 (fluorescence quantum yield) ([2]; solvent Ethanol): 0.010 | Φ2 (fluorescence quantum yield) ([2]; solvent Ethanol): 0.009 | Φ1 (fluorescence quantum yield) ([2]; solvent Methanol): 0.005 | Φ2 (fluorescence quantum yield) ([2]; solvent Methanol): 0.004 | Φ1 (fluorescence quantum yield) ([2]; solvent THF): 0.036 | Φ2 (fluorescence quantum yield) ([2]; solvent THF): 0.034 | Φ1 (fluorescence quantum yield) ([2]; solvent Water): 0.001 | Φ2 (fluorescence quantum yield) ([2]; solvent Water): 0.002
Structure (SMILES): CCN1/C(=C/C=C/C(=C/C2=[N+](CC)c3ccccc3C2(C)C)N(Cc2ccccc2)Cc2ccccc2)C(C)(C)c2ccccc21 [Dye IIf]

Δλ1 ([1]; solvent DCM): 88 | Δλ1 ([1]; solvent DMSO): 92 | Δλ1 ([1]; solvent Ethanol): 94 | Δλ1 ([1]; solvent Methanol): 96 | Δλ1 ([1]; solvent THF): 87 | Δλ1 ([1]; solvent Water): 99 | Δλ2 ([1]; solvent DCM): 158 | Δλ2 ([1]; solvent DMSO): 140 | Δλ2 ([1]; solvent Ethanol): 157 | Δλ2 ([1]; solvent Methanol): 158 | Δλ2 ([1]; solvent THF): 154 | Δλ2 ([1]; solvent Water): 152 | ε1 (molar extinction coefficient) ([1]; solvent DCM): 4.3 cm^−1M | ε2 (molar extinction coefficient) ([1]; solvent DCM): 2.9 cm^−1M | λabs1 ([1]; solvent DCM): 523 nm | λbs2 ([1]; solvent DCM): 453 nm | λem ([1]; solvent DCM): 611 nm | ε1 (molar extinction coefficient) ([1]; solvent DMSO): 3.9 cm^−1M | ε2 (molar extinction coefficient) ([1]; solvent DMSO): 2.7 cm^−1M | λabs1 ([1]; solvent DMSO): 508 nm | λbs2 ([1]; solvent DMSO): 460 nm | λem ([1]; solvent DMSO): 600 nm | ε1 (molar extinction coefficient) ([1]; solvent Ethanol): 3.5 cm^−1M | ε2 (molar extinction coefficient) ([1]; solvent Ethanol): 2.5 cm^−1M | λabs1 ([1]; solvent Ethanol): 516 nm | λbs2 ([1]; solvent Ethanol): 453 nm | λem ([1]; solvent Ethanol): 610 nm | ε1 (molar extinction coefficient) ([1]; solvent Methanol): 3.9 cm^−1M | ε2 (molar extinction coefficient) ([1]; solvent Methanol): 2.8 cm^−1M | λabs1 ([1]; solvent Methanol): 513 nm | λbs2 ([1]; solvent Methanol): 451 nm | λem ([1]; solvent Methanol): 609 nm | ε1 (molar extinction coefficient) ([1]; solvent THF): 4.1 cm^−1M | ε2 (molar extinction coefficient) ([1]; solvent THF): 2.1 cm^−1M | λabs1 ([1]; solvent THF): 517 nm | λbs2 ([1]; solvent THF): 450 nm | λem ([1]; solvent THF): 604 nm | ε1 (molar extinction coefficient) ([1]; solvent Water): 2.9 cm^−1M | ε2 (molar extinction coefficient) ([1]; solvent Water): 2.3 cm^−1M | λabs1 ([1]; solvent Water): 501 nm | λbs2 ([1]; solvent Water): 448 nm | λem ([1]; solvent Water): 600 nm | Φ1 (fluorescence quantum yield) ([2]; solvent DCM): 0.124 | Φ2 (fluorescence quantum yield) ([2]; solvent DCM): 0.085 | Φ1 (fluorescence quantum yield) ([2]; solvent DMSO): 0.004 | Φ2 (fluorescence quantum yield) ([2]; solvent DMSO): 0.004 | Φ1 (fluorescence quantum yield) ([2]; solvent Ethanol): 0.009 | Φ2 (fluorescence quantum yield) ([2]; solvent Ethanol): 0.009 | Φ1 (fluorescence quantum yield) ([2]; solvent Methanol): 0.005 | Φ2 (fluorescence quantum yield) ([2]; solvent Methanol): 0.005 | Φ1 (fluorescence quantum yield) ([2]; solvent THF): 0.030 | Φ2 (fluorescence quantum yield) ([2]; solvent THF): 0.022 | Φ1 (fluorescence quantum yield) ([2]; solvent Water): 0.001 | Φ2 (fluorescence quantum yield) ([2]; solvent Water): 0.001
Structure (SMILES): CCN(CC)C(=C\C1=[N+](CC)c2ccccc2C1(C)C)/C=C/C=C1/N(CC)c2ccccc2C1(C)C [Dye IId]

Reference: patent publication US8735601B2, “Pentamethine cyanine fluorescent dye with N-substituting at β-position of conjugated chain” (Dalian University of Technology, priority 2010, dated 2014)
